Measurements published in patent US8883504B2, “Cell differentiation suppressing agent, method of culturing cells using the same, culture solution, and cultured cell line” (Asahi Kasei Kabushiki Kaisha, priority 2003, dated 2014).

Tests used:
Nanog gene = Nanog gene expression level by real time PCR (ES cell differentiation inhibition assay 3); type: cell-based, mouse; conditions: D3ES cells, 4 μg/mL, 1 day, GAPDH internal standard, FIG. 7
Method: For the D3ES cells prepared by the method described in (3) preparation of a mouse ES cell of Example 1, 7.85×10^5 cells were seeded in a 10 cm-diameter cell culture dish coated previously with a 0.1% aqueous gelatin solution to make 10 mL of the ES cell assay medium. The differentiation inhibiting agent B of the present invention in the final concentration of 4 μg/mL or ESGRO in the final concentration of 1×10^3 unit/mL was added to each dish, and culturing was carried out at 37° C. in 5% CO2 incubator for 1 day.
The total RNA was extracted from the ES cell cultured by the method shown in (3) ES cell differentiation inhibition assay 3 as described above by using ISOGEN (K.K. Nippon Gene Corp. Japan made) by the attached method. In this method, the cell was collected in a 15 mL sterilized tube, centrifuged at 1,000 rpm for about 5 minutes by using the table centrifuge (TOMY SEIKO made) to make pellets. The supernatant was removed, the pellets were washed twice with 10 mL of PBS, and then, transferred to a 1.5 mL Eppendorf tube. The pellets were dissolved in 1 ml ISOGENE and left stand at room temperature for 5 minutes and, then, added with 0.2 mL of chloroform (Wako Pure Chemicals), shaken for 15 seconds, and left stand at room temperature for 2 or 3 minutes. Centrifugation was carried out at 4° C. at 10,000 rpm for 15 minutes by using the micro centrifuge (TOMY SEIKO made), 400 μL of the supernatant was transferred to a fresh 1.5 mL Eppendorf tube. 500 μL of isopropanol (Wako Pure Chemicals) was added and the mixture was left stand at room temperature for 10 minutes and, then, was centrifuged at 4° C. at 10,000 rpm for 10 minutes by using the micro centrifuge. The supernatant was removed and, then, 1 mL of a 70% ethanol aqueous solution was added. The mixture was shaken and then was centrifuged at 4° C. at 10,000 rpm for about 5 minutes by using the micro centrifuge. The supernatant was removed and the precipitation was dried and, then, dissolved in 30 μL of distilled water to obtain the total RNA solution.
The cDNA was synthesized by using 2 μg of the total RNA obtained by such the way as the template, using DeoxyribonucleaseI (Amplification Grade) (Invitrogen Corp. made) and SuperScript III First-Strand Synthesis System for RT-PCR (Invitrogen Corp. made, 18080-051) by the attached protocol. In this step, 1 μL of 10× DNaseI Reaction Buffer, 1 μL of 10× DNaseI (all these were of Invitrogen Corp. made) were added to 2 μg of the total RNA to give the total volume of 10 μL by adding distilled water to prepare the reaction solution, and then incubation was carried out at room temperature for 10 minutes. 1 μL of 25 mM EDTA solution was added, and the mixture was heated at 65° C. for 10 minutes and then, cooled to room temperature. 8 μL of the reaction solution was taken out, and 1 μL of […] Oligo(dT) 20 primer and 1 μL of 10 mM dNTP Mix were added, and incubation was carried out at 65° C. for 5 minutes. The reaction solution was placed on ice for 1 minute, and then 2 μL of 10× RT Buffer, 4 μL of 25 mM MgCl2, 2 μL of 0.1 M DTT, 1 μL of RNaseOUT (Invitrogen Corp. made) and 1 μL of SuperScript III RT were added for incubation at 50° C. for 50 minutes. Subsequently, incubation was carried out at 85° C. for 5 minutes, and then the mixture was left stand on ice for 1 min. […] The expression level of the Nanog gene and the glyceraldehyde-3-phosphate dehydrogenase (GAPDH) gene as the internal standard were measured. […]

SSEA-1 antigen = assay: Evaluation of the expression level of SSEA-1 antigen 1 (flow cytometry); type: cell-based, mouse; conditions: D3ES cells, 7 days, FIG. 8
Method: For the D3ES cells prepared by the method described in (3) preparation of a mouse ES cell of Example 1, 8×10^4 cells were seeded in a 10 cm-diameter cell culture dish coated previously with a 0.1% aqueous gelatin solution to make 10 mL of the ES cell assay medium. 1 mL of the differentiation inhibiting agent A to F, which were dissolved in dimethylsulfoxide (DMSO) or culture medium or their mixture to make 40 μg/mL per each dish, or ESGRO, which was adjusted to make 10^4 unit/mL, was added, and culturing was carried out at 37° C. in 5% […] incubator for 7 days. To the culture medium was added DMSO to make the final concentration 0.1% or lower.
The cells cultured in (1) ES cell differentiation inhibition assay 2 as described above were washed twice with PBS, and were removed from the dish with a cell scraper. 300 μL of Hanks balanced salt solution (HBSS, Invitrogen Corp. made) containing 2% FBS was added to give 6×10^5 cells. 30 μL of MX-SSEA-1 antibody (Kyowa Medex Corp. made) diluted 50 folds with HBSS was added, and left stand for 40 minutes on ice. […] The sample used for flow cytometry was measured after passed through a nylon mesh with a 100 μm pore size to eliminate a coagulated mass. […]

Structure (SMILES) | expression level of Nanog gene in comparison with medium without agent and medium containing 1,000 units/mL of ESGRO (Nanog gene) | average fluorescence intensity per 1 cell (SSEA-1 antigen expression intensity per 1 cell) in comparison with medium without agent (SSEA-1 antigen)
CC(=O)c1ccc(/N=N/C(C(N)=O)=C2/NC(C)(C)Cc3ccccc32)cc1 [compound B, 2-(4-acetyl-phenylazo)-2-(3,3-dimethyl-3,4-dihydro-2H-isoquinoline-1-ylidene)-acetamide] | increased significantly | –
CC1(C)Cc2ccccc2C(=C(N=Nc2cccc(Cl)c2)C(N)=O)N1 [C, 2-(3-chloro-phenylazo)-2-(3,3-dimethyl-3,4-dihydro-2H-isoquinoline-1-ylidene)-acetamide] | increased similarly to the differentiation inhibiting agents B | significantly high
CC1(C)Cc2ccccc2C(=C(N=Nc2cccc([N+](=O)[O-])c2)C(N)=O)N1 [E, 2-(3,3-dimethyl-3,4-dihydro-2H-isoquinoline-1-ylidene)-2-(3-nitro-phenylazo)-acetamide] | increased similarly to the differentiation inhibiting agents B | significantly high
COc1ccc(N=NC(C(N)=O)=C2NC(C)(C)Cc3ccccc32)cc1 [F, 2-(3,3-dimethyl-3,4-dihydro-2H-isoquinoline-1-ylidene)-2-(4-methoxy-phenylazo)-acetamide] | increased similarly to the differentiation inhibiting agents B | –
